Source: patent publication US9050294B2, “Treatment of neural diseases or conditions” (Royal Institution for the Advancement of Learning/McGill …, priority 2008, dated 2015)
“Also recorded” adds a separate entry of the source.

How the values were obtained:
[1] = tested on: spinal cord injury (SCI) in BALB/c mice; test: Locomotor recovery after SCI, Basso Mouse Scale (BMS) open-field test; assay type: in vivo
Description: (§1) Fenretinide preparation and treatment.
Locomotor recovery was evaluated in an open-field test using the Basso Mouse Scale (BMS) (Basso et al. (2006) J Neurotrauma 23: 635-659), which was specifically developed for locomotor testing after contusion injuries in mice. The BMS analysis of hindlimb movements and coordination was carried out by two independent trained assessors, and the consensus score taken. The final score is presented as mean±SEM. The BMS is a compressed scale with a maximum score of 9 as compared to the […] BBB scale for rats. Therefore small differences in the BMS can account for larger functional differences.

[2] = tested on: spinal cord injury (SCI) in BALB/c mice; test: Oxidative stress markers (MDA, nitrotyrosine) in spinal cord after SCI, ELISA; assay type: in vivo, mouse; conditions: 3 dpi, vs control mice
From the text: as §1

microglial cells = test: Cell viability and cell de-attachment studies on microglial cells; assay type: cell-based, mouse; conditions: 0.625 and 1.25 μM
[3] = tested on: SOD1^G93A transgenic mice; test: Glial activation in L4 ventral horn (GFAP and Mac-2 immunohistochemistry); assay type: in vivo, mouse; conditions: L4, 130 days of age; p≦0.05
Description: (B) For ALS studies: Mice were deeply anaesthetized with a cocktail of ketamine (7.5 mg/ml) and xylazine (0.5 mg/ml) administered via intraperitoneal injection at a dose of 20 ml/kg of body weight. Animals were then sacrificed by transcardial perfusion with 4% paraformaldehyde in 0.1M phosphate buffered saline (PBS). The fourth lumbar spinal cord segment, identified by its contribution to the sciatic nerve was carefully removed, post-fixed for 1 hour in 4% paraformaldehyde solution and cryoprotected overnight in 30% sucrose in 0.1M PBS. […] Images were imported into SigmaScan™ Pro Image Measurement Software Version 5.0.0 (SPSS Inc., Chicago, Ill.) and activated astrocytes and microglia were quantified by exceeding an intensity threshold. […] Serial sections from a separate set were stained for Nissle body detection using cresyl violet staining and the number of motor neurons surviving in the ventral horn were quantified.
Immunohistochemistry was also performed on different serial sections from the same animals. […] Images of both ventral horns were captured every 300 μm and imported into SigmaScan™ Pro image quantification software. The area occupied by darkly stained cells was quantified and normalized for the total area.

[4] = tested on: spinal cord injury (SCI) in BALB/c mice; test: AA and DHA levels in plasma and spinal cord after spinal cord contusion (lipid analysis, GC/MS); conditions: 5 mg/kg/day oral
Description: Adult (8-10 weeks old) female BALB/c mice (Charles River Canada) were anaesthetized with ketamine:xylazine:acepromazine (50:5:1 mg/kg). After performing a laminectomy at the 11th thoracic vertebrae, the exposed spinal cord was contused using the Infinite™ Horizons Impactor device (Precision Scientific Instrumentation, Lexington, Ky.). Moderate injuries were made using a force of 50 kDynes and tissue displacements ranging between 400-600 μm (Ghasemlou et al. (2005) Exp. Neurol. 196: 9-17).
Fenretinide preparation and treatment. Fenretinide powder was resuspended in 95% ethanol under sterile conditions to generate a 2 μg/μL stock solution. This solution was incorporated into a daily liquid diet of Peptamen™ (Nestle Canada, Brampton, ON) at a dose of 5 mg/kg/day for oral consumption as described previously (Guilbault et al. (2008) Am J Respir Cell Mol Biol 38: 47-56). The suspension was protected from light and kept at 4° C. before treatment of the mice. One hour following surgery and for the subsequent three days, fenretinide was administered by gavage in two doses, each suspended in 300 μL of Peptamen™. Gavage was chosen as the method of drug delivery immediately after surgery due to the loss of appetite and reduced food intake during the first 48 h after injury. After day three, mice were fed the fenretinide/Peptamen™ mixture. At this point mice were separated into individual cages in order to ascertain the amount of food and drug consumed. Following day 3, the diet was administered every morning with careful monitoring of the quantity consumed by each mouse. More specifically, the daily fenretinide dose was incorporated into 12 ml of Peptamen™, which represents 80% of the daily mouse food consumption, to ensure 100% consumption. The food was given to the mice in the mid-morning. The diet for control animals was prepared and administered in the same fashion as the drug treatment; however, control animals received Peptamen™ with no fenretinide added but with an equivalent amount of ethanol.
(A) For SCI studies: in order to establish plasma kinetics, blood samples were taken from the saphenous vein at day 0, 1, 3, 7, 11, and 21 post-injury. On day 28, blood samples were obtained by intra-cardiac puncture. All blood samples were mixed with 10 μl of EDTA to prevent coagulation and centrifuged at 350×g for 7 minutes at 4° C. The plasma was then removed and lipids were extracted with chloroform-methanol (2:1 vol/vol) containing 1 mM butylated hydroxyanisole (BHA), as previously described (Folch et al. (1957) J Biol Chem 226: 497-509). The lipid fractions were dried under nitrogen and resuspended in heptane as previously described (De Sanctis (1991) Med Sci Res 19: 335-337). Phospholipids were identified by thin layer chromatography extraction. Diazomethane was used to esterify the released fatty acids and the esters were identified by GC/MS (Hewlett Packard 5880A, WCOT) capillary column (Supelco™-10, 35 m×0.5 mm, 1 μm thick) using commercial standards (Sigma-Aldrich, Oakville, ON, Canada). Total levels of DHA and AA as well as phospholipid-bound DHA, phospholipid-bound AA, malonyldialdehyde (MDA) and nitrotyrosine were assessed in both plasma and spinal cord samples.

SMILES: CC1=C(/C=C/C(C)=C/C=C/C(C)=C/C(=O)Nc2ccc(O)cc2)C(C)(C)CCC1 [fenretinide, all-trans-N-(4-hydroxyphenyl) retinamide]
- BMS score ([1]; 5 mg/kg/day oral started 1 h after SCI, 28 dpi, 9-point scale, vehicle 4.6): 5.8
- mean BMS subscore higher than vehicle-treated mice ([1]; 5 mg/kg/day oral, 28 dpi): 2.2 points
- fine locomotor skills (BMS subscores) vs vehicle ([1]; 5 mg/kg/day oral, day 7 to 28 after SCI): significant improvement
- locomotor function (BMS) vs vehicle-treated mice ([1]; 5 mg/kg/day oral, significant from day 7 after SCI): improved locomotor function; also recorded: significantly enhanced motor skills
- decrease of malonyldialdehyde (MDA) level in spinal cord [2]: about 2 fold
- decrease of nitrotyrosine level in spinal cord [2]: about 2 fold
- toxic effects on the cells (cell viability, cell de-attachment) (microglial cells): did not have any toxic effects
- GFAP staining of ventral horn: sham-treated mice greater than fenretinide-treated [3]: more than 50%
- Mac-2 positive stained area: control animals more than fenretinide-treated [3]: 60%
- plasma docosahexaenoic acid (DHA) levels vs vehicle-treated mice ([4]; started 1 h after SCI, 3 to 28 dpi): concomitant increase; also recorded: significantly higher
- plasma arachidonic acid (AA) levels vs vehicle-treated mice ([4]; started 1 h after SCI, day 1 to 28 after SCI): significant reduction
- AA level in injured spinal cord vs vehicle ([4]; 3 dpi): significant decrease
- DHA level in injured spinal cord vs vehicle ([4]; 3 dpi): increase
